Reference: ChEMBL document CHEMBL4616581, “Current scenario of artemisinin and its analogues for antimalarial activity” (Eur J Med Chem, 2019)

Assays:
Format in all cases: functional, organism-based
Plasmodium falciparum [1] = test: Antimalarial activity against blood stages of chloroquine-resistant Plasmodium falciparum K1
Plasmodium falciparum [2] = test: Antimalarial activity against chloroquine-sensitive Plasmodium falciparum 3D7 after 72 hrs by SYBR green dye-based spectrofluorometer analysis; details: 3D7, 72 h
Plasmodium falciparum [3] = test: Antimalarial activity against chloroquine-resistant Plasmodium falciparum K1 after 72 hrs by SYBR green dye-based spectrofluorometer analysis; details: K1, 72 h
Plasmodium falciparum [4] = test: Antimalarial activity against Plasmodium falciparum HB3
Plasmodium falciparum [5] = test: Antimalarial activity against Plasmodium falciparum K1
Plasmodium falciparum [6] = test: Antimalarial activity against Plasmodium falciparum NF54 after 48 hrs by spectrophotometric analysis; details: NF54, 48 h
Plasmodium falciparum [7] = test: Antimalarial activity against chloroquine-sensitive Plasmodium falciparum NF54
Plasmodium falciparum [8] = test: Antimalarial activity against Plasmodium falciparum NF54
Plasmodium falciparum [9] = test: Antimalarial activity against chloroquine-resistant Plasmodium falciparum K1 after 48 hrs by [3H]-hypoxanthine incorporation assay
Plasmodium falciparum [10] = test: Antimalarial activity against Plasmodium falciparum HB3 after 48 hrs by [3H]-hypoxanthine incorporation assay
Plasmodium falciparum [11] = test: Antimalarial activity against Plasmodium falciparum K1 after 48 hrs by [3H]hypoxanthine incorporation assay
Plasmodium falciparum [12] = test: Antimalarial activity against Plasmodium falciparum D6 after 48 hrs by in presence of [3H]hypoxanthine
Plasmodium falciparum [13] = test: Antimalarial activity against Plasmodium falciparum W2 after 48 hrs by in presence of [3H]hypoxanthine
Plasmodium falciparum [14] = test: Antimalarial activity against Plasmodium falciparum K1 by [3H]-hypoxanthine incorporation assay
Plasmodium falciparum [15] = test: Antimalarial activity against Plasmodium falciparum W2 after 24 hrs by in presence of [3H]hypoxanthine
Plasmodium falciparum [16] = test: Antimalarial activity against Plasmodium falciparum D6 after 24 hrs by in presence of [3H]hypoxanthine
Plasmodium falciparum [17] = test: Antimalarial activity against Plasmodium falciparum HB3 after 48 hrs by [3H]hypoxanthine incorporation assay

## C[C@@H]1CC[C@H]2[C@@H](C)C(O)O[C@@H]3C[C@]4(C)CC[C@@H]1[C@]32OO4 (stereo partly specified)
Plasmodium falciparum [1]
  IC50: 0.69 ng/mL

## CCC(=O)OC1O[C@@H]2O[C@]3(C)CC[C@H]4[C@H](C)CC[C@@H]([C@H]1C)[C@@]24OO3 (stereo partly specified)
Plasmodium falciparum [2]
  EC50: 3.1 nM
Plasmodium falciparum [3]
  EC50: 0.3 nM

## C[C@H]1[C@@H](OCc2ccc(CN3CCOCC3)cc2)O[C@@H]2O[C@]3(C)CC[C@H]4[C@H](C)CC[C@@H]1[C@@]24OO3
Plasmodium falciparum [4]
  IC50: 50 nM
Plasmodium falciparum [5]
  IC50: 35 nM

## C[C@@H]1CC[C@H]2[C@@H](C)C(OC(=O)c3cccc([N+](=O)[O-])c3)O[C@@H]3O[C@]4(C)CC[C@@H]1[C@]32OO4 (stereo partly specified)
Plasmodium falciparum [6]
  IC50: 10.6 nM

## C[C@H]1[C@@H](OCc2ccc(C(=O)O)cc2)O[C@@H]2C[C@]3(C)CC[C@H]4[C@H](C)CC[C@@H]1[C@@]24OO3
Plasmodium falciparum [1]
  IC50: 1.38 ng/mL

## C[C@H]1[C@@H](OCCN2CCCC2)O[C@@H]2O[C@]3(C)CC[C@H]4[C@H](C)CC[C@@H]1[C@@]24OO3
Plasmodium falciparum [4]
  IC50: 23 nM
Plasmodium falciparum [5]
  IC50: 23 nM

## C[C@@H]1CC[C@H]2[C@@H](C)C(CC(=O)c3ccc(C(=O)CC4O[C@@H]5O[C@]6(C)CC[C@H]7[C@H](C)CC[C@@H]([C@H]4C)[C@@]57OO6)cc3)O[C@@H]3O[C@]4(C)CC[C@@H]1[C@]32OO4 (stereo partly specified)
Plasmodium falciparum [7]
  IC50: 1.9 nM

## CC1=C(/C=C/c2ccccc2)O[C@@H]2O[C@]3(C)CC[C@H]4[C@H](C)CC[C@@H]1[C@@]24OO3
Plasmodium falciparum [8]
  IC50: 16 nM

## C[C@H]1[C@@H](OCc2ccc(CN3CCCCC3)cc2)O[C@@H]2O[C@]3(C)CC[C@H]4[C@H](C)CC[C@@H]1[C@@]24OO3
Plasmodium falciparum [4]
  IC50: 12.2 nM
Plasmodium falciparum [5]
  IC50: 9.8 nM

## C[C@H]1[C@@H](CCOP(=O)(OCC[C@H]2O[C@@H]3O[C@]4(C)CC[C@H]5[C@H](C)CC[C@@H]([C@H]2C)[C@@]35OO4)Oc2ccccc2)O[C@@H]2O[C@]3(C)CC[C@H]4[C@H](C)CC[C@@H]1[C@@]24OO3
Plasmodium falciparum [9]
  IC50: 0.5 nM
Plasmodium falciparum [10]
  IC50: 0.18 nM

## C[C@H]1[C@@H](Oc2ccc(C(F)(F)F)cc2)O[C@@H]2O[C@]3(C)CC[C@H]4[C@H](C)CC[C@@H]1[C@@]24OO3
Plasmodium falciparum [11]
  IC50: 5.92 nM

## CCOC(=O)CC[C@H](O[C@H]1O[C@@H]2O[C@]3(C)CC[C@H]4[C@H](C)CC[C@@H]([C@H]1C)[C@@]24OO3)c1ccccc1
Plasmodium falciparum [12]
  IC50: 0.459 ng/mL
Plasmodium falciparum [13]
  IC50: 0.144 ng/mL

## COc1cc(OC)c(C2O[C@@H]3O[C@]4(C)CC[C@H]5[C@H](C)CC[C@@H]([C@H]2C)[C@@]35OO4)cc1C1O[C@@H]2O[C@]3(C)CC[C@H]4[C@H](C)CC[C@@H]([C@H]1C)[C@@]24OO3 (stereo partly specified)
Plasmodium falciparum [7]
  IC50: 1.3 nM

## C[C@H]1[C@@H](OCc2ccc(CO)cc2)O[C@@H]2O[C@]3(C)CC[C@H]4[C@H](C)CC[C@@H]1[C@@]24OO3
Plasmodium falciparum [4]
  IC50: 4.2 nM
Plasmodium falciparum [5]
  IC50: 4.4 nM

## C[C@@H]1CC[C@H]2[C@H](C[C@@]3(CCCCCC[C@]4(C[C@H]5C(=O)O[C@@H]6O[C@]7(C)CC[C@H]8[C@H](C)CC[C@@H]5[C@@]68OO7)C(=O)O[C@@H]5O[C@]6(C)CC[C@H]7[C@H](C)CC[C@@H]4[C@@]57OO6)C(=O)O[C@@H]4O[C@]5(C)CC[C@H]6[C@H](C)CC[C@@H]3[C@@]46OO5)C(=O)O[C@@H]3O[C@]4(C)CC[C@@H]1[C@]32OO4
Plasmodium falciparum [14]
  EC50: 5.8 nM

## COP(=O)(OCC[C@H]1O[C@@H]2O[C@]3(C)CC[C@H]4[C@H](C)CC[C@@H]([C@H]1C)[C@@]24OO3)OCC[C@H]1O[C@@H]2O[C@]3(C)CC[C@H]4[C@H](C)CC[C@@H]([C@H]1C)[C@@]24OO3
Plasmodium falciparum [9]
  IC50: 0.2 nM
Plasmodium falciparum [10]
  IC50: 0.09 nM

## C[C@@H]1CC[C@H]2[C@@H](C)C(OC(=O)c3ccc([N+](=O)[O-])cc3)O[C@@H]3O[C@]4(C)CC[C@@H]1[C@]32OO4 (stereo partly specified)
Plasmodium falciparum [6]
  IC50: 8.54 nM

## CC1CCC2C(CCCCCCC[C@]3(C[C@@H]4C(=O)O[C@@H]5O[C@]6(C)CC[C@H]7[C@H](C)CC[C@@H]4[C@@]57OO6)C(=O)O[C@@H]4O[C@]5(C)CC[C@H]6[C@H](C)CC[C@@H]3[C@@]46OO5)C(O)OC3OC4(C)CCC1C32OO4 (stereo partly specified)
Plasmodium falciparum [14]
  EC50: 3.1 nM

## COC(=O)[C@H](C)CO[C@H]1O[C@@H]2O[C@]3(C)CC[C@H]4[C@H](C)CC[C@@H]([C@H]1C)[C@@]24OO3
Plasmodium falciparum [15]
  IC50: 0.057 ng/mL
Plasmodium falciparum [16]
  IC50: 2.15 ng/mL

## C[C@H]1[C@H](Oc2cccc3ccccc23)O[C@@H]2O[C@]3(C)CC[C@H]4[C@H](C)CC[C@@H]1[C@@]24OO3
Plasmodium falciparum [11]
  IC50: 2.88 nM
Plasmodium falciparum [17]
  IC50: 2.88 nM

## C[C@@H]1CC[C@H]2[C@@H](C)C(CC(=O)c3cccc(C(=O)CC4O[C@@H]5O[C@]6(C)CC[C@H]7[C@H](C)CC[C@@H]([C@H]4C)[C@@]57OO6)c3)O[C@@H]3O[C@]4(C)CC[C@@H]1[C@]32OO4 (stereo partly specified)
Plasmodium falciparum [7]
  IC50: 1.9 nM

## C[C@@H]1CC[C@H]2[C@@H](C)C(OC(=O)Cc3ccccc3)O[C@@H]3O[C@]4(C)CC[C@@H]1[C@]32OO4 (stereo partly specified)
Plasmodium falciparum [2]
  EC50: 2.4 nM
Plasmodium falciparum [3]
  EC50: 0.5 nM

## CCO[C@H]1O[C@@H]2C[C@]3(C)CC[C@H]4[C@H](C)CC[C@@H]([C@H]1C)[C@@]24OO3
Plasmodium falciparum [1]
  IC50: 12.8 nM

## C[C@H]1[C@@H](OCc2ccc(CN)cc2)O[C@@H]2O[C@]3(C)CC[C@H]4[C@H](C)CC[C@@H]1[C@@]24OO3
Plasmodium falciparum [4]
  IC50: 3.1 nM
Plasmodium falciparum [5]
  IC50: 1.4 nM

## CC1=C(/C=C\c2ccccc2)O[C@@H]2O[C@]3(C)CC[C@H]4[C@H](C)CC[C@@H]1[C@@]24OO3
Plasmodium falciparum [8]
  IC50: 8.1 nM

## C[C@@H]1CC[C@@H]2[C@]34OO[C@@](C)(CC[C@@H]13)O[C@H]4OC(O/C=C/c1ccccc1)[C@]2(C)O (stereo partly specified)
Plasmodium falciparum [6]
  IC50: 106 nM

## C[C@H]1[C@@H](O[C@@H](C)CC(=O)O)O[C@@H]2O[C@]3(C)CC[C@H]4[C@H](C)CC[C@@H]1[C@@]24OO3
Plasmodium falciparum [15]
  IC50: 7.43 ng/mL
Plasmodium falciparum [16]
  IC50: 15 ng/mL

## CCOC(=O)CC[C@@H](O[C@H]1O[C@@H]2O[C@]3(C)CC[C@H]4[C@H](C)CC[C@@H]([C@H]1C)[C@@]24OO3)c1ccccc1
Plasmodium falciparum [12]
  IC50: 0.496 ng/mL
Plasmodium falciparum [13]
  IC50: 0.213 ng/mL

## C[C@@H]1CC[C@H]2[C@H](C[C@@]3(CCCCCCC4C(=O)O[C@@H]5O[C@]6(C)CC[C@H]7[C@H](C)CC[C@@H]4[C@@]57OO6)C(=O)O[C@@H]4O[C@]5(C)CC[C@H]6[C@H](C)CC[C@@H]3[C@@]46OO5)C(=O)O[C@@H]3O[C@]4(C)CC[C@@H]1[C@]32OO4 (stereo partly specified)
Plasmodium falciparum [14]
  EC50: 2.4 nM

## CNCCO[C@H]1O[C@@H]2O[C@]3(C)CC[C@H]4[C@H](C)CC[C@@H]([C@H]1C)[C@@]24OO3
Plasmodium falciparum [4]
  IC50: 27 nM
Plasmodium falciparum [5]
  IC50: 24 nM

## COc1ccc(OC)c(COC2O[C@@H]3O[C@]4(C)CC[C@H]5[C@H](C)CC[C@H]([C@@]35OO4)[C@@]2(C)O)c1 (stereo partly specified)
Plasmodium falciparum [6]
  IC50: 125 nM

## C[C@@H]1CC[C@H]2[C@@H](C)C(OC(=O)c3cccc4c3OCO4)O[C@@H]3O[C@]4(C)CC[C@@H]1[C@]32OO4 (stereo partly specified)
Plasmodium falciparum [6]
  IC50: 8.08 nM

## COC(=O)[C@@H](C)CO[C@H]1O[C@@H]2O[C@]3(C)CC[C@H]4[C@H](C)CC[C@@H]([C@H]1C)[C@@]24OO3
Plasmodium falciparum [15]
  IC50: 0.015 ng/mL
Plasmodium falciparum [16]
  IC50: 0.36 ng/mL

## COC(=O)C[C@H](C)O[C@H]1O[C@@H]2O[C@]3(C)CC[C@H]4[C@H](C)CC[C@@H]([C@H]1C)[C@@]24OO3
Plasmodium falciparum [15]
  IC50: 0.48 ng/mL
Plasmodium falciparum [16]
  IC50: 1.19 ng/mL

## CC(C)CNCCOC1O[C@@H]2O[C@]3(C)CC[C@H]4[C@H](C)CC[C@@H]([C@H]1C)[C@@]24OO3 (stereo partly specified)
Plasmodium falciparum [2]
  EC50: 6.8 nM
Plasmodium falciparum [3]
  EC50: 2.4 nM

## C[C@H]1[C@@H](OC[C@@H](C)C(=O)O)O[C@@H]2O[C@]3(C)CC[C@H]4[C@H](C)CC[C@@H]1[C@@]24OO3
Plasmodium falciparum [15]
  IC50: 5.34 ng/mL
Plasmodium falciparum [16]
  IC50: 22.2 ng/mL

## C[C@H]1[C@@H](Oc2cccc3ccccc23)O[C@@H]2O[C@]3(C)CC[C@H]4[C@H](C)CC[C@@H]1[C@@]24OO3
Plasmodium falciparum [11]
  IC50: 8.89 nM
Plasmodium falciparum [17]
  IC50: 7.06 nM

## C[C@@H]1CC[C@@H]2[C@]34OO[C@@](C)(CC[C@@H]13)O[C@H]4OC(OCC1CC1)[C@]2(C)O (stereo partly specified)
Plasmodium falciparum [6]
  IC50: 158 nM

## C=CC1=C(C)[C@@H]2CC[C@@H](C)[C@@H]3CC[C@]4(C)OO[C@@]23[C@H](O1)O4
Plasmodium falciparum [8]
  IC50: 28 nM

## CCOC(=O)CC[C@@H](O[C@H]1O[C@@H]2O[C@]3(C)CC[C@H]4[C@H](C)CC[C@@H]([C@H]1C)[C@@]24OO3)c1ccc([N+](=O)[O-])cc1
Plasmodium falciparum [12]
  IC50: 0.563 ng/mL
Plasmodium falciparum [13]
  IC50: 0.23 ng/mL

## C[C@@H]1CC[C@H]2[C@H](C[C@@]3(CCCCCCC[C@]4(C[C@H]5C(=O)O[C@@H]6O[C@]7(C)CC[C@H]8[C@H](C)CC[C@@H]5[C@@]68OO7)C(=O)O[C@@H]5O[C@]6(C)CC[C@H]7[C@H](C)CC[C@@H]4[C@@]57OO6)C(=O)O[C@@H]4O[C@]5(C)CC[C@H]6[C@H](C)CC[C@@H]3[C@@]46OO5)C(=O)O[C@@H]3O[C@]4(C)CC[C@@H]1[C@]32OO4
Plasmodium falciparum [14]
  EC50: 20 nM

## CO[C@H]1O[C@@H]2C[C@]3(C)CC[C@H]4[C@H](C)CC[C@@H]([C@H]1C)[C@@]24OO3
Plasmodium falciparum [1]
  IC50: 0.301 ng/mL

## CCNCCO[C@H]1O[C@@H]2O[C@]3(C)CC[C@H]4[C@H](C)CC[C@@H]([C@H]1C)[C@@]24OO3
Plasmodium falciparum [4]
  IC50: 4.1 nM
Plasmodium falciparum [5]
  IC50: 4.1 nM

## C[C@@H]1CC[C@@H]2[C@]34OO[C@@](C)(CC[C@@H]13)O[C@H]4OC(OCc1ccc3c(c1)OCO3)[C@]2(C)O (stereo partly specified)
Plasmodium falciparum [6]
  IC50: 110 nM
